# Experimental data as given in publication PMC7000209, “Novel small molecule modulators of quorum sensing in avian pathogenic Escherichia coli (APEC)” (Virulence, 2018).
# Experiments:
# APEC O2 in THP-1 cells = assay: Intracellular survival assay, APEC O2 in THP-1 cells; type: cell-based, avian pathogenic E. coli (APEC) O2; conditions: MOI 100, 100 µM, 6 h; for reduction of intracellular survival of APEC O2: vs DMSO treated control
# Protocol: (§1) The effect of the selected AI-2 inhibitors on the survival of APEC in macrophage cells was tested as described before. Briefly, HD-11 cells was grown as described above and infected with 1 × 10^7 CFU (MOI = 100) of mid-log phase APEC strains (O78, O1 and O2) at 37 °C for 1 h. Cells were washed with PBS and treated with gentamicin (150 μg/mL) for 1 h to kill the extracellular bacteria. The cells were then washed and incubated with 100 µM of each compound in media containing 10 μg/mL of gentamicin at 37 °C for 6 h. Following treatment, cells were washed, lysed with 0.1% Triton X-100 for 5 min, ten-fold serially diluted in PBS and plated on LB agar plates to determine CFUs. Cells treated with chloramphenicol (40 μg/mL) and 1 μL of 100% DMSO were used as controls. The experiment was conducted two times with four replicates in each experiment. Intracellular survival was expressed as the log change of APEC CFUs in the AI-2 inhibitors treated cells.
# (§2) Similarly, the intracellular survival assay was also performed in THP-1 cells (ATCC® TIB-202™) as described above. The THP-1 cells were grown in RPMI 1640 medium (Gibco) supplemented with 10% FBS and 2 mM glutamine. In order to differentiate the THP-1 monocyte to macrophage, 100 nM phorbol myristate acetate (PMA; Sigma-Aldrich) was added to the media. The cells (1.4 × 10^5 cells/well) were grown in a 96-well plate in a 5% CO2 incubator at 37 °C for 48 h, infected with APEC (MOI = 100), treated with each compound and the intracellular bacteria was determined as above.
# APEC O1 in THP-1 cells = assay: Intracellular survival assay, APEC O1 in THP-1 cells; type: cell-based, avian pathogenic E. coli (APEC) O1; conditions: MOI 100, 100 µM, 6 h, vs DMSO treated control
# Protocol: as §1, §2
# [1] = test system: AI-2 activity of APEC O78; assay: AI-2 bioluminescence indicator assay (V. harveyi BB170), APEC O78 supernatant; type: cell-based, avian pathogenic E. coli (APEC) O78; conditions: Escherichia coli, read-out: AI-2-associated bioluminescence inhibition
# APEC O78 in HD-11 cells = assay: Intracellular survival assay, APEC O78 in HD-11 cells; type: cell-based, avian pathogenic E. coli (APEC) O78; conditions: MOI 100, 100 µM, 6 h; for reduction of intracellular survival of APEC O78: vs DMSO treated control
# Protocol: as §1
# APEC O78 in THP-1 cells = assay: Intracellular survival assay, APEC O78 in THP-1 cells; type: cell-based, avian pathogenic E. coli (APEC) O78; conditions: MOI 100, 100 µM, 6 h, vs DMSO treated control
# Protocol: as §1
# as §2, with “In order to differentiate the THP-1 monocyte to macrophage, 100 nM phorbol myristate acetate (PMA; Sigma-Aldrich) was added to the media.” left out
# APEC O1 in HD-11 cells = assay: Intracellular survival assay, APEC O1 in HD-11 cells; type: cell-based, avian pathogenic E. coli (APEC) O1; conditions: MOI 100, 100 µM, 6 h; for reduction of intracellular survival of APEC O1: vs DMSO treated control
# Protocol: as §1
# G. mellonella larvae = assay: Toxicity of SMs in wax moth larvae; type: in vivo, Galleria mellonella; conditions: uninfected larvae, 12.5 µg/larva (50 mg/kg), 72 h
# Protocol: To confirm that the death of the larvae was not due to the compounds, intrinsic toxicity the AI-2 inhibitors were assessed in a separate experiment. G. mellonella larvae (fifth instar; n = 10) were inoculated with 8.5 µL of SMs (50 mg/kg body weight; 12.5 µg/ larva) into the hemocoel via the last left proleg. Post inoculation, larvae were placed inside sterile petri dishes and incubated in the dark at 37 °C for 72 h and larval survival was monitored every 24 h. Two independent experiments were conducted
# HD-11 cells = assay: Lactate dehydrogenase (LDH) cytotoxicity assay, HD-11; type: cell-based, chicken; conditions: 100 µM, 24 h
# Protocol: The selected 10 AI-2 inhibitors were evaluated for their toxicity to Caco-2 (ATCC® HTB-37™) using LDH assay. Briefly, Caco-2 cells (1.4 × 10^5 cells/well) were grown in a 96-well plate in minimal essential medium (MEM) supplemented with 20% fetal bovine serum (FBS; Gibco), 1% non-essential amino acid (NEAA, Invitrogen Life Technologies) and 1mM sodium pyruvate, at 37 °C in a humidified 5% CO2 incubator for 48 h until a complete monolayer was formed. For LDH assay, cells were washed twice with media containing no FBS/no antibiotics and incubated with 150 µL of fresh media containing 100 μM of each compound at 37 °C for 24 h in a humidified 5% CO2 incubator. Fifty microliters of supernatant was analyzed using LDH Cytotoxicity Assay Kit (Thermo Scientific).
# Toxicity was also determined on HD-11 cells (CVCL-4685). The HD-11 cells (1.4 × 10^5 cells/well) were grown in Iscove’s modified Dulbecco’s medium (IMEM; Gibco) supplemented with 2 mM glutamine and 10% FBS at 37 °C in a humidified 5% CO2 for 48 h until a monolayer was completely formed. LDH assay was conducted as described above.
# chicken RBCs = conditions: 1 h, 100 µM
# Protocol: (§3) The hemolytic activity of the selected AI-2 inhibitors was determined as described before [56]. Briefly, 200 µL of the 10% RBCs (LAMPIRE Biological Laboratories) suspension in PBS was incubated with 100 μM of each compound for 1 h in a 96-well plate. The plate was then centrifuged at 5000 × g for 5 min, placed on ice for 5 min and the absorbance of the supernatant was measured at 540 nm. PBS, 1% DMSO, and 0.1% Triton X-100 were used as controls. Two independent experiments were conducted in triplicate wells in each experiment.
# sheep RBCs = conditions: 1 h, 100 µM
# Protocol: as §3
compound,measurement,setting,value
"Fc1ccc(CN2CCCN(Cc3nc(-c4ccc(C(F)(F)F)cc4)no3)CC2)cc1 [C9, 1-(4-fluorobenzyl)-4-({3-[4-(trifluoromethyl)phenyl]-1,2,4-oxadiazol-5-yl}methyl)-1,4-diazepane]",clearance of intracellular APEC O2,APEC O2 in THP-1 cells,100%
same,reduction of intracellular survival of APEC O2,APEC O2 in THP-1 cells,4 logs
same,reduction of intracellular survival of APEC O1,APEC O1 in THP-1 cells,up to 0.9 log
same,inhibition at 50 µM,[1],25%
same,clearance of intracellular APEC O78,APEC O78 in HD-11 cells,100%
same,reduction of intracellular survival of APEC O78,APEC O78 in HD-11 cells,~ 4 logs
"CS/C(N)=N/N=C/c1cc(C)ccc1O [C4, methyl N'-(2-hydroxy-5-methylbenzylidene)h ydrazonothiocarbamate]",reduction of intracellular survival of APEC O78,APEC O78 in HD-11 cells,up to 1 logs
"OCCC1CN(C2CCN(c3ccccc3)CC2)CCN1CCCc1ccccc1 (stereo not drawn) [C10, 2-[4-(1-phenyl-4-piperidinyl)-1-(3-phenylpropyl)-2-piperazinyl]ethanol]",reduction of intracellular survival of APEC O78,APEC O78 in THP-1 cells,up to 0.7 logs
same,clearance of intracellular APEC O2,APEC O2 in THP-1 cells,100%
same,reduction of intracellular survival of APEC O2,APEC O2 in THP-1 cells,4 logs
same,reduction of intracellular survival of APEC O1,APEC O1 in HD-11 cells,up to 0.9 logs
same,reduction of intracellular survival of APEC O1,APEC O1 in THP-1 cells,up to 0.9 log
same,inhibition at 50 µM,[1],25%
same,clearance of intracellular APEC O78,APEC O78 in HD-11 cells,100%
same,reduction of intracellular survival of APEC O78,APEC O78 in HD-11 cells,~ 4 logs
"O=[N+]([O-])c1cccc(S(=O)(=O)Nc2ccc(Br)cc2)c1 [C6, N-(4-bromophenyl)-3-nit robenzenesulfonamide]",survival of larvae treated with compound (toxicity),G. mellonella larvae,100%
"Cc1ccc(CN2CCN(CCCc3ccccc3)CC2)cc1 [C5, 1-(4-methylbenzyl)-4-(3-phenylpropyl)piperazine]",cytotoxicity (LDH release),HD-11 cells,less than 10%
"NC(=O)c1ccccc1Nc1cccc(C(F)(F)F)c1 [C3, 2-{[3-(trifluoromethyl)phenyl]amino}benzamide]",hemolytic activity,chicken RBCs,6.4%
same,clearance of intracellular APEC O1,APEC O1 in HD-11 cells,100%
same,reduction of intracellular survival of APEC O1,APEC O1 in HD-11 cells,~ 4 logs
same,hemolytic activity,sheep RBCs,20.6%
same,reduction of intracellular survival of APEC O1,APEC O1 in THP-1 cells,up to 0.9 log
"COCCN1CCC(CN(Cc2ccncc2)Cc2ccccc2Cl)CC1 [C1, (2-chlorobenzyl){[1-(2-methoxyethyl)-4-piperidinyl]methyl}(4-pyridinylmethyl)amine]",survival of larvae treated with compound (toxicity),G. mellonella larvae,100%
same,reduction of intracellular survival of APEC O1,APEC O1 in THP-1 cells,up to 0.9 log
"CCc1ccccc1Nc1nc(-c2c(C)nc3ccccn23)cs1 [C8, N-(2-ethylphenyl)-4-(2-methylimidazo[1,2-a]pyridin-3-yl)-1,3-thiazol-2-amine]",cytotoxicity (LDH release),HD-11 cells,less than 10%
same,reduction of intracellular survival of APEC O78,APEC O78 in HD-11 cells,up to 1 logs
"O=C(CCN1CCN(c2ccccc2F)CC1)Nc1ccc(Br)cc1 [C7, N-(4-bromophenyl)-3-[4-(2-fluorophenyl)-1-piperazinyl]propanamide]",inhibition at 50 µM,[1],25%
